Assay results published in US8563567B2, “Substituted heterocyclic compounds” (ArQule, Inc., priority 2009, dated 2013).
Structures can show the parent of a compound that is named as a salt.

How the values were obtained:
[1] = target: Abl (T315I) (Homo sapiens, UniProt P00519, T315I); test: Abl kinase activity assay (fluorescent ELISA, AblTide substrate); format: biochemical
Experimental: The disclosed compounds were assayed for their ability to inhibit the activity of ABL kinase. Nunc Maxisorb plates are coated with streptavidin by overnight incubation with 100 μL per well of 1 μg/mL streptavidin in DPBS. Prior to the start of the experiment, the plates are washed with TBST (3×200 μL) and blocked for at least 3 hours by adding 150 μL of 5% BSA/TBST. The plates are washed with TBST (3×200 μL/well) and left dry immediately before the capture step.
The test articles and controls (Gleevec) are prepared using the following assay buffer @ 10× desired final concentration (50 mM Tris pH 7.0, 0.02 mg/ml BSA, 10 mM MgCl2, 0.1 mM Na3VO4, 1 mM EGTA, 0.01% NP-40, 1 mM DTT in 10% glycerol/water). In a reaction plate are added rapidly 5 μL test article (or control) and 30 μL ABL or ABL T315I (0.089 nM final concentration, in the above buffer). The plate is incubated for 20 minutes. To the reaction plate is added ATP (100 μM final concentration) and AblTide (128 nM final concentration) in a volume of 15 μL. The plate is incubated at room temperature for one hour.
From the reaction plate, 40 μL is transferred to the streptavidin coated plate. The capture plate is incubated at room temperature for 30 minutes then washed 3× with TBST. To the capture plate is added 100 μL/well of Cell Signaling anti-phospho tyrosine at a dilution of 1:3000 in 2% BSA/TBST. The plate is incubated for two hours at room temperature then washed 3× with TBST. To the capture plate is added 100 μL/well of Alkaline Phosphatase Tagged Goat anti Mouse Antibody at a dilution of 1:4000 in 2% BSA/TBST. The plate is incubated for one hour at room temperature then washed 3× with TBST.
The fluorescent readout was initiated by the addition of 100 μL/well of Attophos reagent (6 mg/10 mL). The reading was done on the Perkin Elmer Envision system.

[2] = target: T1, FGFR2 (N549H) (Homo sapiens, UniProt P21802, N549H); test: FGFR2 kinase activity assay (fluorescent ELISA); format: biochemical
T1 construct: purchased Millipore 14-742
T1 sequence (P21802 22-821 N549H): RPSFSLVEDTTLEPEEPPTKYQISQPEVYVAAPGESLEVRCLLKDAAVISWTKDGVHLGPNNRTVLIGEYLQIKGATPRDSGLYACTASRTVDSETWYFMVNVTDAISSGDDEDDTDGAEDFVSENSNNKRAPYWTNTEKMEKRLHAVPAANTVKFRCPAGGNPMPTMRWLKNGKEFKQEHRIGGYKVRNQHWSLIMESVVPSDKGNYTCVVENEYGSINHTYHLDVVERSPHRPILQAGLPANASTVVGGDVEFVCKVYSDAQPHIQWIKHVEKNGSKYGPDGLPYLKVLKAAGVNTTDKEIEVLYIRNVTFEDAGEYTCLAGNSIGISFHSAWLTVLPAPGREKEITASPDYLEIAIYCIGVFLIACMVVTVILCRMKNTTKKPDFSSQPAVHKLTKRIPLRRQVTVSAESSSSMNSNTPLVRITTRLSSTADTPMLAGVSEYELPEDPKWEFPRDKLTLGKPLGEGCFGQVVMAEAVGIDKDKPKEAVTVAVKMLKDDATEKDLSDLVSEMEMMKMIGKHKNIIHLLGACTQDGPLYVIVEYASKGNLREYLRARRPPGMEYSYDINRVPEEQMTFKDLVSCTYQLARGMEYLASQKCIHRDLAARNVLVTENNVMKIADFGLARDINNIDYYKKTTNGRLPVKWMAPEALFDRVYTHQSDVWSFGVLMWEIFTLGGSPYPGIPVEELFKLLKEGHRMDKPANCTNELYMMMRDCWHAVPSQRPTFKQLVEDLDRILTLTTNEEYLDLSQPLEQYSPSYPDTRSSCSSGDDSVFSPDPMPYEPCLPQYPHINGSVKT
Experimental: The enzymatic assays described herein are conducted according to the following procedures from commercially available reagents. In one, non limiting, example, a fluorescent ELISA assay is used to identify and characterize inhibitors of FGFR2 kinase as described herein. This heterogeneous assay utilizes a biotinylated peptide with a tyrosine motif as a substrate and an anti-phospho-tyrosine antibody to measure phosphorylation of the substrate. The reaction is initiated by adding the test compound, 37 μM Pyk2 substrate (Midwest Biotech, Cat. # MBT2383), 12.5 μM ATP (Roche, Cat. #11 140 965 001) and 0.5 μM FGFR2 enzyme (Millipore, Cat. #14-742) sequentially to a non-binding polypropylene V-well plate. All reagents are in an assay buffer consisting of: 50 mM Tris-HCL, 0.02 mg/ml BSA, 10 mM MgCl2, 0.1 mM Na3VO4, 1 mM EGTA, 75 μM ATP, 0.01% NP-40, 2 mM DTT and 10% glycerol. The reaction is incubated for 60 minutes. As the reaction proceeds, FGFR2 phosphorylates tyrosines in the peptide. The reaction mixture is then moved to a blocked streptavidin-coated Nunc Maxisorb plate (coated with 100 ng streptavidin from Pierce (Cat. #15-124) per well), allowing for the capture of the biotinylated peptide. Peptides are captured for 30 minutes at room temperature, the phosphorylation of peptides continues during this phase. The reaction is stopped by washing the streptavidin-coated plate 6 times with TBST. Phosphorylated peptide is detected by adding anti-phospho-tyrosine antibody (Cell Signaling, Cat. #9411, diluted 1:3000) to the streptavidin-coated plate. Unbound anti-phospho-tyrosine antibody is removed by washing the streptavidin-coated plate 6 times with TBST. Secondary detection is performed using alkaline phosphatase tagged goat anti-mouse antibody (Pierce, Cat. #31320, diluted 1:4000) for one hour. Unbound secondary antibody is removed by washing the streptavidin-coated plate 6 times with TBST. The fluorescent readout is initiated by adding to the streptavidin-coated plate Promega Attophos substrate (Promega, Cat. # S1000, dilution=6 mg/10 ml), which, when dephosphorylated by alkaline phosphatase, emits a fluorescent signal of 595 nm in wavelength when excited by a signal of 400 nm in wavelength. The reading of the 595 nm signal is done on the Perkin Elmer Envision system. Compounds which prevent FGFR2 from phosphorylating the peptide result in a lower fluorescent signal. The 595 nm fluorescent signal is directly proportional to the activity of FGFR2. Thus, the inhibition of FGFR2 by compounds is monitored by the decrease in the 595 nm fluorescent signal.

[3] = tested on: MDA-MB-231; test: MTS assay, MDA-MB-231; format: cell-based; settings: Homo sapiens, MDA-MB-231, 72 h
Experimental: (§1) Cells were maintained at 37° C., 5% CO2 in RPMI media supplemented with 1% fetal bovine serum, penicillin/streptomycin and fungizone (Invitrogen). Cells were seeded into 96-well tissue culture plates at 3000 per well and cultured at 37° C. for 18 h. Test compounds were dissolved and diluted to 300× in DMSO then diluted 1:40 in DMEM. Cells were incubated with test compounds for 72 hours followed by incubation with tetrazolium compound (3-(4,5-dimethylthiazol-2-yl)-5-(3-carboxymethoxyphenyl)-2-(4-sulfophenyl)-2H-tetrazolium, inner salt; MTS) and the electron coupling reagent, phenazine methosulfate (PMS) for 4 hours. […] The ability of compounds to inhibit cell growth in this assay is correlated with the reduction of dehydrogenase enzyme activity found in metabolically active cells. The measurement of the absorbance of the formazan was assessed using an ENVISION™ (Perkin Elmer) microplate reader at 492 nm. The calculated IC50 value is the concentration of the test compound that causes a 50% decrease in the absorbance.

[4] = tested on: DLD-1; test: MTS assay, DLD-1; format: cell-based; settings: Homo sapiens, DLD-1, 72 h
Experimental: as §1

melting point | Structure (SMILES) | other results
170 to 172 °C | CC(C)(C)C(=O)N1CCC(CNc2nccc(-c3cn4c5c(cccc35)CCC4)n2)CC1 (as salt: trifluoroacetate) [Compound 36, 1-(4-((4-(5,6-dihydro-4H-pyrrolo[3,2,1-ij]quinolin-1-yl)pyrimidin-2-ylamino)methyl)piperidin-1-yl)-2,2-dimethylpropan-1-one] | –
140 to 142 °C | O=S(=O)(c1ccc(Cl)cc1)N1CCC(CNc2nccc(-c3cn4c5c(cccc35)CCC4)n2)CC1 (as salt: trifluoroacetate) [Compound 35, N-((1-(4-chlorophenylsulfonyl)piperidin-4-yl)methyl)-4-(5,6-dihydro-4H-pyrrolo[3,2,1-ij]quinolin-1-yl)pyrimidin-2-amine] | –
192 to 194 °C | Cl.c1cc2c3c(c1)c(-c1ccnc(NCC4CCNCC4)n1)cn3CCC2 | –
198 to 200 °C | Cl.c1cc2c3c(c1)c(-c1nnnn1C1CCNCC1)cn3CCC2 | –
– | O=c1[nH][nH]c(-c2ccc3ccccc3c2)c1-c1cn2c3c(cccc13)CCC2 [Compound 13, 4-(5,6-dihydro-4H-pyrrolo[3,2,1-ij]quinolin-1-yl)-5-(2-naphthyl)-1,2-dihydro-3H-pyrazol-3-one] | inhibition at 10 µM [1]: 37%; inhibition at 30 µM [2]: 94%; inhibition at 10 µM [3]: 46%; inhibition at 10 µM [4]: 61%
170 to 172 °C | CCOC(=O)CNC(=O)N1CCC(CNc2nccc(-c3cn4c5c(cccc35)CCC4)n2)CC1 (as salt: trifluoroacetate) [Compound 34, ethyl 2-(4-((4-(5,6-dihydro-4H-pyrrolo[3,2,1-ij]quinolin-1-yl)pyrimidin-2-ylamino)methyl)piperidine-1-carboxamido)acetate] | –
